The source of these data is patent US20070025986A1, “Modulation of HCN channels by second messengers” (priority 2003, published 2007).

For test [1], the target named is T1, HCN1-ΔNvΔC channel (Mus musculus, UniProt O88704, A73M).
T1 construct: HCN1-ΔNvΔCterm (amino acid positions 73 to 390 of mHCN1); expressed in transfected cells; host or cells: Xenopus oocytes (cRNA injection); excised inside-out patches
T1 sequence (O88704 73-390 A73M): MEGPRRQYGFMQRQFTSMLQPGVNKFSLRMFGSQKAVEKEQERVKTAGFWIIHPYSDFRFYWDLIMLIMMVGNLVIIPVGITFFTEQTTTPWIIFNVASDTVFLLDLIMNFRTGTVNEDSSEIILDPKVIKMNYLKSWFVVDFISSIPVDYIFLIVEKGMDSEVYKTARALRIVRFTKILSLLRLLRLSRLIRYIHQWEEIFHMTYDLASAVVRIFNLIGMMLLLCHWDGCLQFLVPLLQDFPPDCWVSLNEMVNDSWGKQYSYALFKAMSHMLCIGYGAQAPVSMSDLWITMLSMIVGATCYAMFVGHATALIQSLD
Put plainly: Excised inside-out patch (IOP) clamp of HCN1-ΔNvΔC and basic-residue alanine mutants with 4,5-PIP2. The test is classed as biochemical. How it is done: Molecular Biology. […] Electrophysiology-General. […] Electrophysiology-Excised cell-free inside-out patch clamp recordings. […] When cAMP was applied, NaCl was replaced with equivalent amount of cAMP. In experiments where 4,5-PIP2, kinase inhibitors or other compounds were included, stock solutions of the compounds dissolved in either DMSO or H2O were added to the recording solutions to an appropriate final concentration. […] It was routinely tested and confirmed that addition of the solvents alone was without effect. Analysis of electrophysiological recordings. […] IOP-clamp was performed to measure the gating activity of the wild type and mutant channels under a “rundown” condition. […] The minimal 4,5-PIP2 responsive mouse HCN1 channel […] of mHCN1), were further mutated to produce the following constructs in which the basic amino acid residues Arginine, Lysine and Histidine are replaced […]), NT2 […], and […]), NT3 […], and […]), NT4 […], and […], and […], and […]), and […]). All individual point mutations were also constructed. The mutants were expressed in Xenopus oocytes. IOP clamp was performed with the mutant channels in the presence and absence of 5 μM 4,5-PIP2. […] Facilitation of HCN channel gating may be effected by direct interaction between 4,5-PIP2 and basic amino acid residues in the cytoplasmic region of the HCN channel. See hypothesis in the legend of FIG. 6.

In test [2] the target is T2, HCN2-R591E channel (Mus musculus, UniProt O88703, R591E).
T2 construct: expressed in transfected cells; host or cells: Xenopus oocytes (cRNA injection); excised inside-out patches
T2 sequence (O88703 1-863 R591E): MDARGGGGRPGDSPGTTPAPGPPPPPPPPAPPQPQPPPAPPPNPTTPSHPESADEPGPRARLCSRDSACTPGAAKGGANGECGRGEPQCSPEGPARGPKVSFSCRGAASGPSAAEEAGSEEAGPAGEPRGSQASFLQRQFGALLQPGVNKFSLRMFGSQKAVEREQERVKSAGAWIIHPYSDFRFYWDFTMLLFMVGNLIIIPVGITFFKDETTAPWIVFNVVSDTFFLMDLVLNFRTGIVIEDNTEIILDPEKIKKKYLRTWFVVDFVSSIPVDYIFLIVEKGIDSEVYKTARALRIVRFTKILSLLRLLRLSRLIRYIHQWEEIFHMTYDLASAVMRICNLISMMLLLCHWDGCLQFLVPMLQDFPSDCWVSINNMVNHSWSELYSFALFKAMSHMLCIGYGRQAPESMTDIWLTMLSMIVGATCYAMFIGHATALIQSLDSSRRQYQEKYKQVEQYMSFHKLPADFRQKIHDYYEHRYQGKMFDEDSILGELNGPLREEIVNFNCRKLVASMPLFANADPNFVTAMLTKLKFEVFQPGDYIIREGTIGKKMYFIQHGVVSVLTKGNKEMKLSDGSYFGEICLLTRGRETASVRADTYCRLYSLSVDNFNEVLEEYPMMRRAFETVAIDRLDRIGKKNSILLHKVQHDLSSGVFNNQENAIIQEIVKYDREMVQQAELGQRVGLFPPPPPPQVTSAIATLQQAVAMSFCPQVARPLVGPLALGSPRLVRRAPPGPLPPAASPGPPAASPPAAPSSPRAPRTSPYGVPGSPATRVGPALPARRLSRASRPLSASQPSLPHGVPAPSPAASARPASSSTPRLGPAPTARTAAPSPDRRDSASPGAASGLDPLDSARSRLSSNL
Put plainly: Excised inside-out patch (IOP) clamp of HCN2-R591E after rundown, 4,5-PIP2 rescue. The test is classed as biochemical. Here is the method: Molecular Biology. […] Electrophysiology-General. […] Electrophysiology-Excised cell-free inside-out patch clamp recordings. […] When cAMP was applied, NaCl was replaced with equivalent amount of cAMP. In experiments where 4,5-PIP2, kinase inhibitors or other compounds were included, stock solutions of the compounds dissolved in either DMSO or H2O were added to the recording solutions to an appropriate final concentration. […] It was routinely tested and confirmed that addition of the solvents alone was without effect. Analysis of electrophysiological recordings. […] An HCN2-[…] construct was expressed in Xenopus oocytes. 2 MEV-clamp recording was performed to measure the gating activity of the HCN2-[…] channel in the intact Xenopus oocytes. IOP-clamp was performed to measure the gating activity of the HCN2-[…] channel under a “rundown” condition. IOP-clamp was also performed in the presence of 4,5-PIP2 to detect the effect of 4,5-PIP2 on the gating activity of the HCN2-[…] channel under a “rundown” condition.

Test [3] relates to HCN2 channel (wild type and CNBD-disabled). Nature of the test: Modulation of HCN2 activation gating by the PTK inhibitor genistein. The test is classed as cell-based, mouse. Here is the method:
(§1) The effect of PTK inhibitor genistein on HCN channel activation was studies using wild type and CNBD-disabled HCN channels. Recordings were made in the presence and absence of genistein.
(§2) Activation of wild type HCN channels and mutant HCN channels with mutation in the C-linker or CNBD domains was recorded in the presence and absence of PTK inhibitor genistein.

The test system of test [4] is HCN1 channel (wild type, CNBD-disabled and deletion constructs). Nature of the test: Modulation of HCN1 activation gating by the PTK inhibitor genistein. The format is cell-based, mouse. Here is the method: as §1, §2
The results in FIG. 18B show the effect of genistein treatment to activation of HCN1-R538E, HCN1-ΔCNBD and HCN1-ΔCterm. Left Panel: Change in V1/2 (V1/2 Final−V1/2 Initial) in control and genistein treated cells (90 μM for 30 min).

The subject of test [5] is DAG concentration in Xenopus oocytes. Conditions: 60 minute incubation; cited from earlier work.
In test [6] the test system is HCN1 channel. Put plainly: Two microelectrode voltage clamp (2MEV) of HCN1 and HCN1 mutants expressed in Xenopus oocytes. The test is classed as cell-based, mouse. Conditions: for Effect on channel activation: HCN1-R538E, 30 μM, 60 minutes perfusion; for Effect on channel gating: wild type HCN1, 200 nM.
For test [7], the system named is plant channel KAT1. Conditions: 200 nM 4βPMA.
Test [8] concerns HCN4 channel. Conditions: for Effect on channel gating: 200 nM.
In test [9] the test system is HCN2 channel. Conditions: for Effect on channel gating: 200 nM.
Procedure: Electrophysiology-General. Recordings were made in either IOP (excised cell-free inside out patch) or 2 MEV (two microelectrode voltage clamp) configurations from Xenopus oocytes 1-5 days after cRNA injection. In both configurations, the Ag—AgCl ground wire(s) were connected to the bath solution by 3M KCl-2% agar salt bridge electrodes placed downstream of, but close to, the oocyte. All recordings were obtained at room temperature (23-25° C.).
Electrophysiology-Two microelectrode voltage-clamp recordings. Data were acquired using a Warner Instruments (Hamden, Conn.) OC-725B amplifier, filtered at 1 kHz then digitized at 2 kHz using an ITC-18 interface and recorded with Pulse software (as described above). For most experiments, oocytes were bathed in a recording solution containing (in mM): 107 KCl, 5 NaCl, 10 HEPES (free acid), and 2 MgCl2, pH 7.4, with NaOH. However, to screen for poorly expressing constructs a recording solution containing (in mM): 112 KCl, 10 HEPES (free acid), and 2 MgCl2, pH 7.4, with KOH, was used to maximize the amplitude of the currents. Under these conditions, tail currents were recorded at the holding potential, −30 mV. The microelectrodes were filled with 3M KCl and had resistances of 0.1-0.5 MΩ (I passing) and 1-4 MΩ (V sensing). An active virtual ground was used to clamp the bath.
Analysis of electrophysiological recordings. “Steady-state” activation curves were determined from the amplitude of tail currents observed after hyperpolarizing voltage steps on return to the indicated potential. For IOP-clamp experiments, the holding potential and the tail potential was −40 mV. For 2 MEV-clamp experiments, the oocytes were held at −30 mV and the tail amplitudes measured at 0 mV. To avert any systematic bias of the determination of the V1/2 in a particular drug and clone combination, at least 10 cells from at least 5 donor frogs were routinely measured with recordings made across a number of weeks.
Tail current amplitudes were measured by averaging the current during the plateau of the tail after allowing the voltage-clamp to settle and the uncompensated linear capacitance to decay and subtracting from this the baseline current recorded 3s later. […] Current values were plotted versus the hyperpolarization step voltage and fitted with the Boltzmann equation: I(V=A1+A2/{1+exp[(V−V1/2)/s]}, where A1 is an offset caused by a nonzero holding current, A2 is the maximal tail current amplitude, V is voltage during the hyperpolarizing test pulse in millivolts, and V1/2 is the activation midpoint voltage. For each experiment, the tail current data were fitted with the above equation. To average the activation data from different experiments, the tail current amplitudes, I(V), from each individual experiment were normalized by first subtracting the derived A1 parameter and then dividing by A2. The normalized data at each voltage were then averaged, and the averaged data were fitted by the Boltzmann equation (with A1 set at 0 and A2 set at 1).
Test [10] has as its system DmHCN (HCN channel of Drosophila melanogaster). The format is cell-based.

For “Phosphatidyl-inositol 4,5-bisphosphate [4,5-PIP2]”, the “Effect on gating of rundown channels” value in test [1] (HCN1-ΔNvΔC, 5 uM 4,5-PIP2, 5 min) is “redepolarizes gating”. Moreover, the “Response to 4,5-PIP2 facilitation of channel gating” value in [1] (mutants NT1, NT2 and NT3 of HCN1-ΔNvΔCterm, 5 μM 4,5-PIP2) is “reduced response”. Moreover, in [1] (mutants R59A, S23-3A, R112A, S45-3A of HCN1-ΔNvΔC, 5 uM 4,5-PIP2), the “Response (difference in V1/2) to 4,5-PIP2 versus wild type” value is listed as “not different from wild type”. Besides, in test [2] (IOP-clamp), the “Effect on gating activity under rundown condition” value is listed as “restore the gating activity”. In [2] (IOP-clamp after rundown), the “Effect on gating slope” value is given as “restores the more shallow gating slope” and the “Mean shift in V1/2 contributed by 4,5-PIP2 to intact cell gating” value is given as about 20 mV.
`O=c1c(-c2ccc(O)cc2)coc2cc(O)cc(O)c12` [genistein]: the “Effect on activation curve” value in test [3] (HCN2-R591E (CNBD disabled)) is listed as “facilitation”; in test [3] (wild type HCN2) it was “inhibition”; in test [4] (HCN1-R538E (CNBD disabled)), “robust facilitation”; in test [4] (wild type HCN1), “weak facilitation”. Besides, in test [3] (cAMP insensitive HCN2 constructs), the Genistein facilitation entry is given as “independent of the CNBD”. The “Genistein facilitation, Δ(ΔV1/2), compared with HCN1-R538E” value in [4] (HCN1-ΔCNBD, 90 μM for 30 min) is “the same”. The “Genistein sensitivity, Δ(ΔV1/2)” value in [4] (HCN1-ΔCterm (C-linker deleted), 90 μM for 30 min) is given as “insensitive”.
Consider `Cc1nc2sccn2c(=O)c1CCN1CCC(=C(c2ccccc2)c2ccc(F)cc2)CC1` [R59022], for which, in test [5], the “DAG concentration in Xenopus oocytes” value was “double”. Also, the “Effect on channel activation” value in test [6] was “facilitates”.
Consider `CCCCCCCCCCCCCC(=O)O[C@@H]1[C@@H](C)[C@@]2(O)[C@@H](C=C(CO)C[C@]3(O)C(=O)C(C)=C[C@@H]23)[C@@H]2C(C)(C)[C@]12OC(C)=O` [4βPMA, 4-βphorbol-1 2myristate-13-acetate], for which, in test [7], the “Effect on channel activation” value is listed as “insensitive”. Further, the “ΔV½ CA UNCOUPLED” value in test [6] (HCN1, 30 min in 200 nM 4βPMA) is “+29 ± 3”; in test [9] (30 min in 200 nM 4βPMA) it was “+15 ± 2”. Besides, the “ΔV½ CA UNCOUPLED H^+ UNCOUPLED” value was “+32 ± 5” in test [6] (HCN1, 30 min in 200 nM 4βPMA) and “+26 ± 3” in [9] (30 min in 200 nM 4βPMA). In addition, the “ΔV½ WILD TYPE” value in test [6] (HCN1, 30 min in 200 nM 4βPMA) is “+15 ± 3”; in test [8] (30 min in 200 nM 4βPMA), “+17 ± 7”; in [9] (30 min in 200 nM 4βPMA), “+8 ± 2”; in [10] it was “+9 ± 4”. In addition, the “4βPMA facilitation of gating in serine, threonine and tyrosine mutants” value in test [6] (mutants of HCN1-ΔNvΔC, 200 nM 4βPMA, 30 minutes) is “not affected”. In addition, the “Effect on channel gating” value in test [6], in [8], in [9] and in [10] was “facilitated” throughout.
As to `O=c1c2ccccc2[nH]c(=S)n1CCN1CCC(=C(c2ccc(F)cc2)c2ccc(F)cc2)CC1` [R59949], in test [5], the “DAG concentration in Xenopus oocytes” value is “double”. The “Effect on channel activation” value in test [6] was “facilitates”.
In the case of `CCCCCCCCCCCCCC(=O)O[C@@H]1[C@@H](C)[C@@]2(O)[C@@H](C=C(CO)C[C@@]3(O)C(=O)C(C)=C[C@@H]23)[C@@H]2C(C)(C)[C@]12OC(C)=O` [4αPMA], the “Effect on channel gating” value in test [6], in test [8], in test [9] and in test [10] was “unaffected” in each case.
